Source: the supplement of paper PMC11451515

Tested on: NOMO1
Experiment: cell viability relative to DMSO control; higher = less cytotoxic
Settings: 48 h
How it was run: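 Library compounds in DMSO were pin-dosed in an 11-point threefold series (47 μM to 0.79 nM) onto leukemia cells in 1536-well plates (5 μl). Plates held 500 cells/well of NOMO1 or SEM or 1000 cells/well of P12-Ichikawa, each adapted for at least four passages in each medium. Luminescence was read with CellTiter-Glo One after 48 h at 37°C. Viability means the per-plate percentage relative to DMSO wells, using cell-free wells as background.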

[1] = HPLM + 10% dialyzed FBS, 0.000781 µM
[2] = HPLM + 10% dialyzed FBS, 0.00234 µM
[3] = HPLM + 10% dialyzed FBS, 0.00702 µM
[4] = HPLM + 10% dialyzed FBS, 0.0211 µM
[5] = HPLM + 10% dialyzed FBS, 0.0632 µM
[6] = HPLM + 10% dialyzed FBS, 0.19 µM
[7] = HPLM + 10% dialyzed FBS, 0.569 µM
[8] = HPLM + 10% dialyzed FBS, 1.71 µM
[9] = HPLM + 10% dialyzed FBS, 5.12 µM
[10] = HPLM + 10% dialyzed FBS, 15.4 µM
[11] = HPLM + 10% dialyzed FBS, 46.1 µM
[12] = RPMI 5 mM glucose + 10% FBS, 0.000781 µM
[13] = RPMI 5 mM glucose + 10% FBS, 0.00234 µM
[14] = RPMI 5 mM glucose + 10% FBS, 0.00702 µM
[15] = RPMI 5 mM glucose + 10% FBS, 0.0211 µM
[16] = RPMI 5 mM glucose + 10% FBS, 0.0632 µM
[17] = RPMI 5 mM glucose + 10% FBS, 0.19 µM
[18] = RPMI 5 mM glucose + 10% FBS, 0.569 µM
[19] = RPMI 5 mM glucose + 10% FBS, 1.71 µM
[20] = RPMI 5 mM glucose + 10% FBS, 5.12 µM
[21] = RPMI 5 mM glucose + 10% FBS, 15.4 µM
[22] = RPMI 5 mM glucose + 10% FBS, 46.1 µM
[23] = RPMI 5 mM glucose + 10% dialyzed FBS, 0.000781 µM
[24] = RPMI 5 mM glucose + 10% dialyzed FBS, 0.00234 µM
[25] = RPMI 5 mM glucose + 10% dialyzed FBS, 0.00702 µM
[26] = RPMI 5 mM glucose + 10% dialyzed FBS, 0.0211 µM
[27] = RPMI 5 mM glucose + 10% dialyzed FBS, 0.0632 µM
[28] = RPMI 5 mM glucose + 10% dialyzed FBS, 0.19 µM
[29] = RPMI 5 mM glucose + 10% dialyzed FBS, 0.569 µM
[30] = RPMI 5 mM glucose + 10% dialyzed FBS, 1.71 µM
[31] = RPMI 5 mM glucose + 10% dialyzed FBS, 5.12 µM
[32] = RPMI 5 mM glucose + 10% dialyzed FBS, 15.4 µM
[33] = RPMI 5 mM glucose + 10% dialyzed FBS, 46.1 µM

| SMILES | cell viability [1] | cell viability [2] | cell viability [3] | cell viability [4] | cell viability [5] | cell viability [6] | cell viability [7] | cell viability [8] | cell viability [9] | cell viability [10] | cell viability [11] | cell viability [12] | cell viability [13] | cell viability [14] | cell viability [15] | cell viability [16] | cell viability [17] | cell viability [18] | cell viability [19] | cell viability [20] | cell viability [21] | cell viability [22] | cell viability [23] | cell viability [24] | cell viability [25] | cell viability [26] | cell viability [27] | cell viability [28] | cell viability [29] | cell viability [30] | cell viability [31] | cell viability [32] | cell viability [33] |
| --- | --- | --- | --- | --- | --- | --- | --- | --- | --- | --- | --- | --- | --- | --- | --- | --- | --- | --- | --- | --- | --- | --- | --- | --- | --- | --- | --- | --- | --- | --- | --- | --- | --- |
| CC[P](CC)(CC)=[Au][S][C@@H]1O[C@H](COC(C)=O)[C@@H](OC(C)=O)[C@H](OC(C)=O)[C@H]1OC(C)=O | 118% | 121% | 119% | 109% | 120% | 105% | 115% | 55.6% | 9.31% | 3.26% | 2.08% | 99.7% | 115% | 105% | 109% | 116% | 87% | 90.4% | 26.9% | 6.9% | 2.16% | 1.83% | 95% | 125% | 111% | 125% | 102% | 114% | 108% | 48.9% | 11.6% | 3.14% | 1.73% |
| Cc1nc(N)sc1-c1ccnc(Nc2ccc(N3CCOCC3)cc2)n1 | 95.3% | 117% | 111% | 120% | 110% | 114% | 115% | 112% | 87% | 79.6% | 82.8% | 93.7% | 91% | 96.5% | 95.5% | 105% | 114% | 105% | 105% | 71.2% | 85.2% | 55.5% | 95.6% | 112% | 116% | 109% | 115% | 106% | 110% | 111% | 69.3% | 72.6% | 61.7% |
| O=C(O)CCCc1ccc(N(CCCl)CCCl)cc1 | 111% | 119% | 119% | 143% | 118% | 151% | 109% | 134% | 138% | 123% | 86.4% | 115% | 110% | 134% | 135% | 127% | 132% | 146% | 132% | 141% | 135% | 61.4% | 119% | 125% | 131% | 125% | 130% | 125% | 129% | 108% | 152% | 141% | 63.9% |
| NC(=O)[C@@H](CCC(F)(F)F)N(Cc1ccc(-c2ncon2)cc1F)[S+](=O)([O-])c1ccc(Cl)cc1 | 107% | 106% | 113% | 108% | 109% | 105% | 97.5% | 91.7% | 96.3% | 71% | 3.05% | 92.8% | 103% | 91.1% | 90.6% | 97.8% | 96.3% | 78.5% | 73.9% | 84.6% | 77.2% | 61% | 94.4% | 93% | 97.1% | 88.3% | 96.9% | 105% | 87% | 83.2% | 88.5% | 81.6% | 50.2% |
| O=C(Nc1ccncc1)C(=O)c1cn(Cc2ccc(Cl)cc2)c2ccccc12 | 106% | 110% | 116% | 105% | 77.9% | 38.1% | 34% | 32.7% | 36.2% | 60.6% | 61.7% | 95.5% | 98.1% | 89.3% | 89.2% | 100% | 46.2% | 26.3% | 22.6% | 53.7% | 44.1% | 61.9% | 88.2% | 91.2% | 116% | 106% | 80.4% | 45.4% | 28.3% | 34.7% | 45.3% | 39.7% | 49.4% |
| CC/C(=C(\c1ccccc1)c1ccc(OCCN(C)C)cc1)c1ccccc1 | 95% | 122% | 107% | 99.5% | 119% | 113% | 113% | 92.4% | 111% | 92.5% | 49.1% | 94.8% | 102% | 102% | 115% | 103% | 101% | 94.1% | 99% | 96.1% | 105% | 76.7% | 93.1% | 99.2% | 104% | 103% | 115% | 110% | 114% | 99.8% | 117% | 81% | 34.7% |
| Clc1ccc(C(Cn2ccnc2)OCc2ccsc2Cl)c(Cl)c1 (stereo not given) | 102% | 127% | 114% | 116% | 103% | 98.8% | 108% | 113% | 134% | 117% | 80.6% | 89.7% | 106% | 119% | 102% | 110% | 102% | 119% | 105% | 96.6% | 111% | 94.2% | 88% | 113% | 112% | 129% | 99% | 122% | 118% | 113% | 96.3% | 100% | 73.5% |
| CC(=O)OCC(CCn1cnc2cnc(N)nc21)COC(C)=O | 80% | 105% | 89.9% | 98.4% | 102% | 113% | 102% | 120% | 112% | 103% | 101% | 91.7% | 101% | 92.8% | 93.1% | 93.9% | 106% | 98.9% | 108% | 104% | 94.2% | 92.7% | 92.4% | 91.3% | 104% | 93% | 89.9% | 112% | 100% | 101% | 99.9% | 108% | 90.3% |
| NC(=O)Cc1cccc(C(=O)c2ccccc2)c1N | 79.5% | 98.2% | 122% | 95.4% | 108% | 109% | 110% | 102% | 108% | 96.8% | 102% | 92.3% | 101% | 88.4% | 91.2% | 96.8% | 88% | 84.7% | 98.8% | 85.2% | 93.7% | 81.9% | 97.4% | 87.3% | 96.1% | 82.7% | 101% | 98.3% | 91.6% | 86.9% | 95.6% | 77.8% | 88.1% |
| c1cc(N[C@@H]2CCNC2)nc(-c2cnc3ccc(-c4cn[nH]c4)cn23)c1 | 133% | 119% | 124% | 137% | 134% | 139% | 127% | 128% | 132% | 102% | 91.9% | 116% | 126% | 124% | 133% | 137% | 125% | 120% | 125% | 128% | 111% | 100% |  |  |  |  |  |  |  |  |  |  |  |
| O=C(N[C@H]1CN2CCC1CC2)c1ccc(Cl)cc1 | 91.3% | 106% | 110% | 138% | 123% | 127% | 118% | 107% | 127% | 103% | 68.1% | 97.8% | 97.1% | 103% | 101% | 114% | 103% | 103% | 94.8% | 92.2% | 102% | 98.3% | 107% | 101% | 97.2% | 91.4% | 108% | 109% | 103% | 92.2% | 103% | 106% | 109% |
| O=C(/C=C/c1cccnc1)NCCCCC1CCN(C(=O)c2ccccc2)CC1 | 102% | 59.8% | 33.1% | 17.4% | 13.1% | 7.89% | 6.3% | 7.27% | 9.47% | 10.6% | 6.73% | 105% | 110% | 47% | 28% | 12.9% | 9.19% | 8.33% | 8.21% | 8.16% | 8.07% | 7.6% | 110% | 75.6% | 39% | 30.7% | 16.8% | 9.73% | 7.83% | 8.77% | 7.77% | 8.34% | 6.8% |
| O=C1C(CCC(O)c2ccc(F)cc2)C(c2ccc(O)cc2)N1c1ccc(F)cc1 (stereo not given) | 111% | 104% | 123% | 124% | 113% | 132% | 133% | 132% | 146% | 132% | 47.5% | 114% | 114% | 108% | 106% | 110% | 120% | 112% | 122% | 122% | 130% | 127% | 101% | 98.9% | 107% | 113% | 92.7% | 118% | 111% | 103% | 117% | 106% | 103% |
| NC(=O)c1c(OCc2c(F)cc(Br)cc2F)nsc1NC(=O)NCCCCN1CCCC1 | 89.9% | 108% | 91.4% | 82.3% | 76.8% | 87.6% | 107% | 79.8% | 67.6% | 18.5% | 21.5% | 123% | 116% | 115% | 116% | 112% | 105% | 111% | 103% | 103% | 66.6% | 85.7% |  |  |  |  |  |  |  |  |  |  |  |
